Laboratory results: ChEMBL document CHEMBL4665659, “Utilizing comprehensive and mini-kinome panels to optimize the selectivity of quinoline inhibitors for cyclin G associated kinase (GAK)” (Bioorg Med Chem Lett, 2019)
Calls of active or inactive are those of the source. No cut-off for these calls is given here.

How the values were obtained:
[1] = molecular target: T1, Cyclin-G-associated kinase (Homo sapiens, UniProt O14976); experiment: Binding affinity to human wild type partial length GAK (G13 to Y338 residues) expressed in bacterial expression system by KinomeScan method
T1 sequence (O14976 whole entry): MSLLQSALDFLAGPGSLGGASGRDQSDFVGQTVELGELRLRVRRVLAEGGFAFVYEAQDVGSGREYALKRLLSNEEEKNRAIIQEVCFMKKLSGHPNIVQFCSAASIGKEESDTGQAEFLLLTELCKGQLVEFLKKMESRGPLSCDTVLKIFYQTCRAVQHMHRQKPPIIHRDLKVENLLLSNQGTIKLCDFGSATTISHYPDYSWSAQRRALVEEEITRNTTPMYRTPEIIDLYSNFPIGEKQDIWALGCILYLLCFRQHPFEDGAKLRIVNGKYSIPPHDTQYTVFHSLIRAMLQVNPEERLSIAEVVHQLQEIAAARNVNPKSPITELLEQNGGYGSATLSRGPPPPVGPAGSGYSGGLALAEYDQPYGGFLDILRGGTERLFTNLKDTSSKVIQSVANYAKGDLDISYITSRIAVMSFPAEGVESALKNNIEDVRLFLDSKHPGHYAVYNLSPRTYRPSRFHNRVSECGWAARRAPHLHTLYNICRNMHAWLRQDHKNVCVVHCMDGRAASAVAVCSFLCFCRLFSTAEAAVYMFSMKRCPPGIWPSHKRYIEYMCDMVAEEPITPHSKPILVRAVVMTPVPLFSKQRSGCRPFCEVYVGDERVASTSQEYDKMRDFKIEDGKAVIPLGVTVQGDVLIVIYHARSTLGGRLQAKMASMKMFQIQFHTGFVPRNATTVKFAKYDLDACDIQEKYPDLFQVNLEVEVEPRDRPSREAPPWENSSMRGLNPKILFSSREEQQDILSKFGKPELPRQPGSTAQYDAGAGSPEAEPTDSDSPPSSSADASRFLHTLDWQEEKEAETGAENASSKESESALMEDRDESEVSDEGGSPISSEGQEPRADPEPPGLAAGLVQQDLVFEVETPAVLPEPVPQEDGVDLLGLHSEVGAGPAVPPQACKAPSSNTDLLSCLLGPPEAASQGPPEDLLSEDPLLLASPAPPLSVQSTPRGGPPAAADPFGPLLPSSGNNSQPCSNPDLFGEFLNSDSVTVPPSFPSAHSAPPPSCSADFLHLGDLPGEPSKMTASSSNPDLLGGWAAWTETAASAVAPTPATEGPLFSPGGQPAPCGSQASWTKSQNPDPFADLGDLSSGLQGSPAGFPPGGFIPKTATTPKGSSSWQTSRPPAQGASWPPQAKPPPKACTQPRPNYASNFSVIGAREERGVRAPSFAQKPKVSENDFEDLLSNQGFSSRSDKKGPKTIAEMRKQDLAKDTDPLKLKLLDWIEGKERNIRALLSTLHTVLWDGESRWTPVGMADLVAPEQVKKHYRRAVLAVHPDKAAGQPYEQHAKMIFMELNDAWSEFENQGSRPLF

[2] = species: Homo sapiens; experiment: Binding affinity to human ABL at 1 uM by Kinomescan method
[3] = molecular target: T2, Activin receptor type-1 (Homo sapiens) (UniProt Q04771); experiment: Inhibition of human wild type partial length ALK2 (C188 to C509 residues) expressed in bacterial expression system at 1 uM by Kinomescan method relative to control
T2 sequence (whole entry): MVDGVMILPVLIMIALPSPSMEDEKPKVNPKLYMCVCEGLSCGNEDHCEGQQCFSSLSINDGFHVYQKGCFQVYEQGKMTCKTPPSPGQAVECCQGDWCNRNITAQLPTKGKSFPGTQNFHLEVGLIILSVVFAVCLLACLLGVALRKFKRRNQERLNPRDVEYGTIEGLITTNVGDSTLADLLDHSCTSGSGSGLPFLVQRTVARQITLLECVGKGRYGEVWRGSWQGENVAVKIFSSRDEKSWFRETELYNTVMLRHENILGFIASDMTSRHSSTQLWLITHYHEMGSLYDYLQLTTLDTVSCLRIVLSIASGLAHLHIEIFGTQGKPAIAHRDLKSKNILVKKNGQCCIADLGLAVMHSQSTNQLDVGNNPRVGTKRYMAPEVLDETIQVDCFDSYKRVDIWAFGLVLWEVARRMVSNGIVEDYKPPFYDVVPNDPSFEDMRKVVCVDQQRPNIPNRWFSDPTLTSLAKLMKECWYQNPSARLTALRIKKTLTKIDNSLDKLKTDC

[4] = molecular target: Epidermal growth factor receptor (Homo sapiens) (UniProt P00533); experiment: Inhibition of human wild type partial length EGFR (R669 to V1011 residues) expressed in bacterial expression system at 1 uM by Kinomescan method
[5] = molecular target: T3, Ephrin type-A receptor 8 (Homo sapiens) (UniProt P29322); experiment: Inhibition of human wild type partial length EphA8 (Q608 to C920 residues) expressed in bacterial expression system at 1 uM by Kinomescan method
T3 sequence (whole entry): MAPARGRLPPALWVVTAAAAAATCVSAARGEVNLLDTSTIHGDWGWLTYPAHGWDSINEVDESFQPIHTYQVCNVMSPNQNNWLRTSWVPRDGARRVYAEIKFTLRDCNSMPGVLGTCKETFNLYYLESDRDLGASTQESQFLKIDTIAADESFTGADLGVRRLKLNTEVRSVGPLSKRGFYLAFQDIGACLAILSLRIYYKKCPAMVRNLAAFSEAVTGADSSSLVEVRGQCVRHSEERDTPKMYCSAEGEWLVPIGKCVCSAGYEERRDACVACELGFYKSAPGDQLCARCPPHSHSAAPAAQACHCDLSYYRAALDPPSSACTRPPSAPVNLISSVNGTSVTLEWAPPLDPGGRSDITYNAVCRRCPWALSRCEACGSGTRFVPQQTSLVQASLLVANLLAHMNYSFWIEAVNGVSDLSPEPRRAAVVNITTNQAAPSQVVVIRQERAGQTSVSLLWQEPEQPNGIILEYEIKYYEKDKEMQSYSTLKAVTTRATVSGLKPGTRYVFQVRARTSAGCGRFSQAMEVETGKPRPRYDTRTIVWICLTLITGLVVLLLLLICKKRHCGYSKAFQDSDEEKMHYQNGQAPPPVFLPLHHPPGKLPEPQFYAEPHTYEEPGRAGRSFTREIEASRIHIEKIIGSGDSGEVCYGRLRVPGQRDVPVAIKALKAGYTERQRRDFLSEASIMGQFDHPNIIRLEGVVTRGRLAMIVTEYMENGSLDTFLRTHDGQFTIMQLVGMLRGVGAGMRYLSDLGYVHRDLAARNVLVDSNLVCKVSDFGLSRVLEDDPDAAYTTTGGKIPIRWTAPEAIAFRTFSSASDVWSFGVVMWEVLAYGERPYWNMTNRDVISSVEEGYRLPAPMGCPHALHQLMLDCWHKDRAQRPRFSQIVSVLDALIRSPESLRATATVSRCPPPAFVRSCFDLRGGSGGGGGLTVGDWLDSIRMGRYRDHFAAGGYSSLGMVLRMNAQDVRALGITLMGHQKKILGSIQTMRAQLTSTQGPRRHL

Sequence of Epidermal growth factor receptor (Homo sapiens) (P00533 whole entry, the tested form may be a part): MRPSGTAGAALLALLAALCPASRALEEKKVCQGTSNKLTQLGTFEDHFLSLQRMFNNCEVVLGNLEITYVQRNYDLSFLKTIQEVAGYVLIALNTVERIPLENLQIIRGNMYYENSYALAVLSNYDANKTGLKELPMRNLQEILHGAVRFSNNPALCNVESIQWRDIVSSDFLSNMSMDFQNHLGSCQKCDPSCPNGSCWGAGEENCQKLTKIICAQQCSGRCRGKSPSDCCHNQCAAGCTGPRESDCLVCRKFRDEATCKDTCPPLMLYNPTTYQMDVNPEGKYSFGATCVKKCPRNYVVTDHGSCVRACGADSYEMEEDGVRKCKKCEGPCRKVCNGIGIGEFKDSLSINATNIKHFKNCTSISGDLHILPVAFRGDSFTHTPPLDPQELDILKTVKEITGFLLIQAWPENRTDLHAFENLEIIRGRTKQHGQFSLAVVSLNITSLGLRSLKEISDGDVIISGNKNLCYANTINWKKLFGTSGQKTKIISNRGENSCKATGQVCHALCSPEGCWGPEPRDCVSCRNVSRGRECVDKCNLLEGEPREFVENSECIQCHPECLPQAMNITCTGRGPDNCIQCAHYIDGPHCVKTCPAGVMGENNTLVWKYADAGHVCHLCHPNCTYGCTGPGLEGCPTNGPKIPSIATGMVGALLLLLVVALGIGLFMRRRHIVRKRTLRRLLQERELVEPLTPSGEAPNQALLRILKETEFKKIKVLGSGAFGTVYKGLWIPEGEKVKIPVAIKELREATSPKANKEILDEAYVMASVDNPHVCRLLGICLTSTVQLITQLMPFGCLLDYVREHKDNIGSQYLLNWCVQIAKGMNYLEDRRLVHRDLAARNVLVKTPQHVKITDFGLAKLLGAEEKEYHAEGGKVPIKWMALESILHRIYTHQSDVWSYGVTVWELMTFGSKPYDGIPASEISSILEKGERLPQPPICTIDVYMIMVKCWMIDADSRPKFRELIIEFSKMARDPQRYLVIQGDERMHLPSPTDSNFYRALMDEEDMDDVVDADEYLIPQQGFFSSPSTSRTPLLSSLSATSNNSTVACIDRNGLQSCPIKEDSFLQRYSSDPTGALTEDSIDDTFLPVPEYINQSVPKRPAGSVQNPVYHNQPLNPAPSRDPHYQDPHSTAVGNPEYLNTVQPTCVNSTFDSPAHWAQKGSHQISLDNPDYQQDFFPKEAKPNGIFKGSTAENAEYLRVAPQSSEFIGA

Row | SMILES | Kd [1] [nM] | Activity [2] | inhibition [3] [%] | inhibition [4] | inhibition [5]
1 | COc1cc(Nc2ccnc3cc(Cl)ccc23)cc(OC)c1OC | 13 | Active | 80 | inactive | Active
2 | COc1cc(Nc2ccnc3cc(C#N)ccc23)cc(OC)c1OC | 43 | Active | 80 | inactive | Active
3 | COc1cc(Nc2ccnc3cc(I)ccc23)cc(OC)c1OC | 7.6 | Active | 80 | inactive | Active
4 | COc1cc(Nc2ccnc3cc(C(F)(F)F)ccc23)cc(OC)c1OC | 23 | Active | 80 | inactive | Active
5 | COc1cc(Nc2ccnc3cc(Br)ccc23)cc(OC)c1OC | 8.6 | Active | 80 | inactive | Active
